Measured values reported in ChEMBL document CHEMBL1201862, “PubChem BioAssay data set” (2004).
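Protocol summary: plate cells (96-well), add compound at 5 concentrations, incubate 48 h, interpolate endpoints linearly. GI50: concentration for 50% inhibition of growth.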 Calls of active or inactive are those of the source. No stated cut-off is given here; in the data, active = GI50 up to about 1.1 µM and inactive = higher.

What was measured:
Assay in all cases: NCI tumour cell line growth inhibition, 48 h
RPMI-8226 = test system: RPMI-8226
NCI-H226 = test system: NCI-H226
SNB-75 = test system: SNB-75
SK-MEL-2 = test system: SK-MEL-2
IGROV-1 = test system: IGROV-1
HL-60 = test system: HL-60
UACC-62 = test system: UACC-62
LOX IMVI = test system: LOX IMVI
OVCAR-5 = test system: OVCAR-5
SW-620 = test system: SW-620
OVCAR-8 = test system: OVCAR-8
TK-10 = test system: TK-10
OVCAR-3 = test system: OVCAR-3
SF-539 = test system: SF-539
MOLT-4 = test system: MOLT-4
A498 = test system: A498
CAKI-1 = test system: CAKI-1

Measured: GI50

COc1cc(-c2cccs2)sc1-c1cccs1
inactive: RPMI-8226 52.4 µM | NCI-H226 43.5 µM | SNB-75 14 µM | SK-MEL-2 31.5 µM | IGROV-1 25.5 µM | HL-60 14.3 µM | UACC-62 40.9 µM | LOX IMVI 46.2 µM | OVCAR-5 22.3 µM | SW-620 71.1 µM | OVCAR-8 97.1 µM | TK-10 41.6 µM | OVCAR-3 63.8 µM | SF-539 73.8 µM | MOLT-4 32.6 µM

C=C1CC2CC(O)CC(C1)C2 (stereo unspecified)
inactive: RPMI-8226 32.4 µM | NCI-H226 > 100 µM | SNB-75 > 100 µM | A498 > 100 µM | SK-MEL-2 > 100 µM | IGROV-1 > 100 µM | UACC-62 > 100 µM | LOX IMVI > 100 µM | OVCAR-5 > 100 µM | SW-620 > 100 µM | OVCAR-8 > 100 µM | TK-10 > 100 µM | OVCAR-3 > 100 µM | SF-539 > 100 µM | MOLT-4 78.2 µM | CAKI-1 > 100 µM

CC1(CO)OC1COCc1ccccc1 (stereo unspecified)
inactive: RPMI-8226 > 100 µM | NCI-H226 > 100 µM | SNB-75 > 100 µM | SK-MEL-2 > 100 µM | IGROV-1 > 100 µM | HL-60 > 100 µM | UACC-62 > 100 µM | LOX IMVI > 100 µM | OVCAR-5 > 100 µM | SW-620 > 100 µM | OVCAR-8 > 100 µM | OVCAR-3 > 100 µM | SF-539 > 100 µM | MOLT-4 > 100 µM

Cc1cccc2c1C(=O)OC2(C)c1cccc2ccccc12 (stereo unspecified)
inactive: RPMI-8226 25.4 µM | NCI-H226 26.5 µM | SNB-75 9.71 µM | SK-MEL-2 23.8 µM | HL-60 16.4 µM | LOX IMVI 30.3 µM | OVCAR-5 > 100 µM | SW-620 30.3 µM | OVCAR-8 32.3 µM | TK-10 29.5 µM | OVCAR-3 26.9 µM | MOLT-4 26.2 µM | CAKI-1 19.8 µM

COc1ccc(/C=C2\C(=O)N(C(=O)c3ccc(NC(C)=O)cc3)N=C2C)cc1OC
inactive: RPMI-8226 > 100 µM | NCI-H226 > 100 µM | SNB-75 > 100 µM | SK-MEL-2 > 100 µM | HL-60 > 100 µM | LOX IMVI > 100 µM | OVCAR-5 > 100 µM | SW-620 > 100 µM | OVCAR-8 > 100 µM | TK-10 > 100 µM | OVCAR-3 > 100 µM | SF-539 > 100 µM | MOLT-4 > 100 µM | CAKI-1 > 100 µM

CCCCCCCCCCCCCC(=O)OCC1OC(=O)CC1O (stereo unspecified)
inactive: RPMI-8226 49.8 µM | SNB-75 > 100 µM | A498 > 100 µM | SK-MEL-2 > 100 µM | IGROV-1 88.5 µM | HL-60 43 µM | UACC-62 94 µM | LOX IMVI 51.5 µM | OVCAR-5 > 100 µM | SW-620 > 100 µM | OVCAR-8 > 100 µM | TK-10 > 100 µM | OVCAR-3 > 100 µM | SF-539 > 100 µM | MOLT-4 35.2 µM | CAKI-1 43 µM

CC(C)c1ccccc1NC(=O)/C(Cl)=C1/Sc2ccccc2NC1=O
inactive: RPMI-8226 20.9 µM | NCI-H226 26.9 µM | SNB-75 22.7 µM | A498 32.6 µM | SK-MEL-2 15.7 µM | IGROV-1 27 µM | HL-60 21.2 µM | UACC-62 20.3 µM | LOX IMVI 29.2 µM | OVCAR-5 43.3 µM | SW-620 25.2 µM | OVCAR-8 43.4 µM | TK-10 71.9 µM | SF-539 21.9 µM | MOLT-4 24.8 µM | CAKI-1 17.5 µM

Nc1nc(N)c2ncn(CCCC(c3ccccc3)P(=O)(O)O)c2n1 (stereo unspecified)
inactive: RPMI-8226 > 100 µM | SNB-75 > 100 µM | A498 > 100 µM | SK-MEL-2 > 100 µM | IGROV-1 > 100 µM | HL-60 > 100 µM | UACC-62 > 100 µM | LOX IMVI > 100 µM | OVCAR-5 > 100 µM | SW-620 > 100 µM | OVCAR-8 > 100 µM | TK-10 > 100 µM | OVCAR-3 > 100 µM | SF-539 > 100 µM | CAKI-1 > 100 µM

CC(C)C12C=CC(C)(CC1)n1c(=O)c3cc4ccccc4cc3c(=O)n12 (stereo unspecified)
inactive: RPMI-8226 36.3 µM | NCI-H226 40.6 µM | SNB-75 33.7 µM | A498 22.5 µM | SK-MEL-2 48.3 µM | IGROV-1 47.8 µM | HL-60 34 µM | LOX IMVI 41.9 µM | OVCAR-5 40.7 µM | SW-620 60.1 µM | OVCAR-8 75.9 µM | TK-10 29.9 µM | OVCAR-3 46.2 µM | SF-539 66.7 µM | MOLT-4 30.8 µM | CAKI-1 87.9 µM

CCOC(=O)C1S/C(=N/c2ccc(Cl)cc2C)N=C1C (stereo unspecified)
inactive: NCI-H226 24 µM | SNB-75 23.6 µM | A498 37.1 µM | SK-MEL-2 16.4 µM | IGROV-1 25.1 µM | HL-60 4.34 µM | UACC-62 14.1 µM | LOX IMVI 15 µM | OVCAR-5 18.1 µM | SW-620 22.3 µM | OVCAR-8 28.1 µM | TK-10 24.7 µM | OVCAR-3 20.8 µM | SF-539 17.6 µM | MOLT-4 9.77 µM | CAKI-1 20.7 µM

CCOC(=O)C1(Cc2ccccc2)CCCCCN1 (stereo unspecified)
inactive: SNB-75 32.8 µM | IGROV-1 > 100 µM | HL-60 > 100 µM | UACC-62 > 100 µM | LOX IMVI > 100 µM | SW-620 > 100 µM | OVCAR-8 > 100 µM | TK-10 > 100 µM | OVCAR-3 > 100 µM | CAKI-1 > 100 µM

O=[N+]([O-])c1nccn1COCCBr
inactive: RPMI-8226 > 100 µM | NCI-H226 > 100 µM | SNB-75 > 100 µM | SK-MEL-2 > 100 µM | HL-60 > 100 µM | UACC-62 > 100 µM | LOX IMVI > 100 µM | OVCAR-5 > 100 µM | SW-620 > 100 µM | OVCAR-8 > 100 µM | TK-10 > 100 µM | OVCAR-3 > 100 µM | SF-539 > 100 µM | MOLT-4 > 100 µM | CAKI-1 > 100 µM

Oc1cc(-c2ccc[nH]2)nc2cc3c(cc12)OCO3
inactive: RPMI-8226 43 µM | SNB-75 13.8 µM | A498 18.6 µM | SK-MEL-2 48.3 µM | IGROV-1 33.3 µM | HL-60 26.9 µM | UACC-62 27 µM | LOX IMVI 64.1 µM | SW-620 21.6 µM | OVCAR-8 46.7 µM | TK-10 62.8 µM | SF-539 29.6 µM | MOLT-4 39.7 µM

C/C(=N\NC(=O)C[n+]1ccccc1)c1sc(-c2nc(C)c(/C(C)=N/NC(=O)C[n+]3ccccc3)s2)nc1C
inactive: RPMI-8226 43.9 µM | NCI-H226 > 100 µM | SNB-75 > 100 µM | A498 > 100 µM | SK-MEL-2 > 100 µM | IGROV-1 > 100 µM | UACC-62 65 µM | LOX IMVI > 100 µM | OVCAR-5 > 100 µM | SW-620 > 100 µM | OVCAR-8 > 100 µM | TK-10 > 100 µM | OVCAR-3 > 100 µM | SF-539 > 100 µM | MOLT-4 95.9 µM | CAKI-1 > 100 µM

O=c1[nH]cc(OCC(F)(F)F)c(=O)[nH]1
inactive: RPMI-8226 > 100 µM | SNB-75 > 100 µM | A498 > 100 µM | SK-MEL-2 > 100 µM | IGROV-1 > 100 µM | HL-60 > 100 µM | UACC-62 > 100 µM | LOX IMVI > 100 µM | OVCAR-5 > 100 µM | SW-620 > 100 µM | OVCAR-8 > 100 µM | TK-10 > 100 µM | OVCAR-3 > 100 µM | SF-539 > 100 µM | MOLT-4 > 100 µM | CAKI-1 > 100 µM

CCOC(=O)C1=C(C)N(NC(N)=O)C2(N)N(NC(N)=O)C(C)=C(C(=O)OCC)C12C(=O)OCC (stereo unspecified)
inactive: RPMI-8226 > 100 µM | NCI-H226 > 100 µM | SNB-75 47.8 µM | A498 > 100 µM | SK-MEL-2 > 100 µM | IGROV-1 > 100 µM | UACC-62 > 100 µM | LOX IMVI > 100 µM | OVCAR-5 > 100 µM | SW-620 > 100 µM | OVCAR-8 > 100 µM | OVCAR-3 > 100 µM | SF-539 > 100 µM | MOLT-4 > 100 µM | CAKI-1 > 100 µM

O=C(Nc1nnn[nH]1)c1nc(O)cc(-c2ccccc2)n1
inactive: RPMI-8226 > 100 µM | NCI-H226 > 100 µM | SNB-75 > 100 µM | A498 > 100 µM | SK-MEL-2 > 100 µM | IGROV-1 > 100 µM | HL-60 > 100 µM | UACC-62 > 100 µM | OVCAR-5 > 100 µM | SW-620 > 100 µM | OVCAR-8 > 100 µM | TK-10 > 100 µM | OVCAR-3 > 100 µM | MOLT-4 > 100 µM | CAKI-1 > 100 µM

COc1ccc(C=O)c([N+](=O)[O-])c1
inactive: RPMI-8226 23.1 µM | NCI-H226 44 µM | SNB-75 52.1 µM | A498 > 100 µM | SK-MEL-2 35.2 µM | IGROV-1 98.6 µM | HL-60 4.2 µM | UACC-62 52.6 µM | LOX IMVI 22.1 µM | SW-620 8.24 µM | OVCAR-8 31.6 µM | TK-10 87.7 µM | OVCAR-3 27.9 µM | SF-539 20.4 µM | MOLT-4 4.31 µM
